Structures can show the parent of a compound that is named as a salt.
Key:
[1] = Human plasma stability assay; assay type: in vitro ADME; conditions: elimination rate constant k; heparinized human plasma, 37° C., 0-24 hours
Protocol: The compound was incubated in heparinized human plasma at 37° C. for 0, 1, 2, 4, 8 and 24 hours, and the change in compound concentration was measured by LC/MS/MS method. The elimination rate constant (=k(/h)) was calculated based on the fitted curve assuming the exponential decrease of concentration as follows; concentration at time x=initial concentration*exp(−k*x).

CT-26 mouse tumor cells = test: Anti-tumor effect in CT-26 syngeneic mice model; assay type: in vivo; conditions: Balb/C mice; intravenous q3dx3; Ex3a 30 mg/kg, Ex14 1.0 mg/kg
Protocol: (§1) Ex14 and Ex3a were tested in syngeneic tumor models in mice. […] See FIG. 8 and FIG. 9 for the anti-tumor effect colon carcinoma CT-26 syngeneic mice model, and FIG. 10 and FIG. 11 for the anti-tumor effect in the […] B16F10 syngeneic mice model.
(§2) 8×10^4 B16F10 and 2×10^5 CT-26 mouse tumor cells were subcutaneously implanted in the flank of female C57BL/6 (B16F10) and Balb/C (CT-26) mice (n=7 per group). Vehicle (1×PBS), compound Ex3a (30 mg/kg) or Ex14 (1.0 mg/kg) were intravenously administered (final volume of 100 μL) to tumor-bearing mice once the tumor volume has reached 100 mm^3 (Day 0). Vehicle, Ex3a or Ex14 were given every 3 days for a total of 3 doses (q3dx3). Tumor and body weight measurements were taken three times per week using vernier calipers and mettler scale, respectively. Tumor volumes were determined by multiplying the square of the width (‘W’), measured along the short axis of the tumor, by one-half the length (‘L’) measured along the […]

B16F10 mouse tumor cells = test: Anti-tumor effect in B16F10 syngeneic mice model; assay type: in vivo; conditions: C57BL/6 mice; intravenous q3dx3; Ex3a 30 mg/kg, Ex14 1.0 mg/kg
Protocol: as §1, §2

[2] = biological target: WT STING (human wild-type TMEM173 (H232R)) (Homo sapiens (Human), UniProt Q86WV6, H232R); test: Reporter Gene Assay (2): ISRE NanoLuc reporter in STING-transfected 293T cells, with digitonin; assay type: cell-based; conditions: HEK-293T, 2′,3′-cGAMP (30 μM) = 100%, solvent = 0%, read-out: activity level against WT STING of test compound (30 μM)
Chain of WT STING (human wild-type TMEM173 (H232R)) (Q86WV6 whole entry H232R): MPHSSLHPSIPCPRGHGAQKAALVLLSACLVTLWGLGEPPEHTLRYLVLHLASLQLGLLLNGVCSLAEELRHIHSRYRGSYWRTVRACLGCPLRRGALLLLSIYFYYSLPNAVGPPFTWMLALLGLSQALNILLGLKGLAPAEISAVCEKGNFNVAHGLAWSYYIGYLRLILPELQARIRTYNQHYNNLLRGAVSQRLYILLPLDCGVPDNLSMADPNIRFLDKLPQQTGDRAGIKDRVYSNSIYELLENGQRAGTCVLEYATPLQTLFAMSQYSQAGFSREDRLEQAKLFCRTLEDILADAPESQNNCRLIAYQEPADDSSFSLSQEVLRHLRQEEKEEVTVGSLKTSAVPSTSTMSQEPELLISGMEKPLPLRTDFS

| Human plasma stability [1] [h⁻¹] | activation at 30 µM [2] [%] | Structure (SMILES) | anti-tumor effect, CT-26 syngeneic mice model (CT-26 mouse tumor cells) | anti-tumor effect, B16F10 syngeneic mice model (B16F10 mouse tumor cells) |
| --- | --- | --- | --- | --- |
| 0.58 |  | Nc1ncnc2c1ncn2[C@@H]1O[C@@H]2COP(=O)(O)O[C@@H]3[C@H](O)[C@@H](COP(=O)(S)O[C@H]2[C@H]1F)O[C@H]3n1cc(F)c2c(=O)[nH]cnc21 (stereo partly drawn) [Ex3a, disodium (5R,7R,8R,12aR,14R,15R,15aR,16R)-14-(6-amino-9H-purin-9-yl)-15-fluoro-7-(5-fluoro-4-oxo-3,4-dihydro-7H-pyrrolo[2,3-d]pyrimidin-7-yl)-16-hydroxy-2-sulfidooctahydro-12H-5,8-methanofuro[3,2-1][1,3,6,9,11,2,10]pentaoxadiphosphacyclotetradecin-10-olate 2,10-dioxide] | anti-tumor effects were observed | anti-tumor effects were observed |
| <0.01 | 107 | Nc1ncnc2c1ncn2[C@@H]1O[C@@H]2COP(=O)(S)O[C@@H]3[C@H](O)[C@@H](COP(=O)(S)O[C@H]2[C@H]1O)O[C@H]3n1cc(F)c2c(=O)[nH]cnc21 (stereo partly drawn) [Example 5, 7-((5R,7R,8R,12aR,14R,15R,15aS,16R)-14-(6-amino-9H-purin-9-yl)-15,16-dihydroxy-2,10-dioxido-2,10-disulfanyloctahydro-12H-5,8-methanofuro[3,2-1][1,3,6,9,11,2,10]pentaoxadiphosphacyclotetradecin-7-yl)-5-fluoro-3,7-dihydro-4H-pyrrolo[2,3-d]pyrimidin-4-one di-triethylamine salt (Optical Isomer)] |  |  |
| <0.01 |  | Nc1ncnc2c1ncn2[C@@H]1O[C@@H]2COP(=O)(S)O[C@@H]3[C@H](O)[C@@H](COP(=O)(S)O[C@H]2[C@H]1F)O[C@H]3n1cc(F)c2c(=O)[nH]cnc21 (stereo partly drawn) [Example 14, 7-((2R,5R,7R,8R,10R,12aR,14R,15R,15aR,16R)-14-(6-amino-9H-purin-9-yl)-15-fluoro-16-hydroxy-2,10-dioxido-2,10-disulfanyloctahydro-12H-5,8-methanofuro[3,2-1][1,3,6,9,11,2,10]pentaoxadiphosphacyclotetradecin-7-yl)-5-fluoro-3,7-dihydro-4H-pyrrolo[2,3-d]pyrimidin-4-one di sodium salt] | anti-tumor effects were observed | anti-tumor effects were observed |

Reference: patent publication US12171777B2, “Methods of making a cyclic dinucleotide” (TAKEDA PHARMACEUTICAL COMPANY LIMITED, priority 2016, dated 2024)
